In patent US8980948B2, “Topical application of travoprost for combating hair loss” (Galderma Research & Development, priority 2007, dated 2015):

Experiments:
[1] = system: C57BL/6 mouse; test: Model of regrowth of the body hair in the C57BL/6 mouse; assay type: in vivo; conditions: for Regrowth of the body hair versus ethanol ΔAUC (D 1-D 22): topical 50 μl
Excerpt: The C57BU6 mice are each a particularly useful model for the study of hair growth:
In C57BU6 mice, the fur is black. In the trunk of the animals, the melanocytes are present solely in the hair follicles and the production of pigment is strictly correlated with the anagen phase of the hair cycle (Slominski A. and Paus R., J. Invest. Dermatol., 10, 90S-97S, 1993).
In young mice, the hair cycles are not in phase throughout the body but are synchronized in a region according to a rostro-caudal wave (Hale P. A. and Ebling F. J., J. Exp. Zool., 191, 49-62). At 42 days, the hair follicles of the dorsal region enter the telogen phase (Chase H. B. Physiol. Rev., 34, 113-126, 195).
Thus, after clipping and shaving the backs of C57BU6 mice aged 42 days, the regrowth can be easily visualized before the hair shafts appear at the surface by the grey appearance which the skin assumes. The delay in appearance of the grey color of the skin and the delay in appearance of the hair shafts after clipping and shaving represent criteria which give an account of the rate of entry of the hair follicle into the anagen phase and the rate of growth of the hair shaft. These two criteria will thus be used to evaluate the activity on the hair growth of the compounds tested.
The male C57BU6 mice are aged 42 days at the beginning of the study. The groups are formed of 10 animals.
On day D0, the backs of the animals are clipped with Minicut clippers equipped with a shoe (retention of 4 mm of hair shaft) and shaved with a Braun razor.
The study is carried out over 21 days.
The hair growth is evaluated according to the criteria defined in:
Minoxidil in solution in ethanol at 2.5% is used as positive control of the regrowth of the body hair.
Travoprost in its isopropyl ester form is used in solution in ethanol at 0.01%.
The travoprost, the minoxidil and the carrier are administered by the topical route using a pipette at the rate of 50 μl per application.
The minoxidil and the carrier are administered in repeated daily fashion from day 1 to day 21 of the study. Two different treatments are carried out with the travoprost: a first group receiving a single administration on day 1 of the study and a second group receiving five repeated daily and consecutive administrations from day 1 to day 5 of the study.
The following calculations are carried out: • Mean±SEM of the scores per day for each group treated. • Areas under the curve (AUC) of the regrowth scores per animal from D1 to D22. • Mean±SEM of the AUC values per treatment group. • Percentage of increase in the AUC values for each treated group versus the carrier group.
The AUC is obtained by summing the areas of the rectangles from the first and the final day of the study. The different treatment groups are compared with the carrier group with regard to this parameter by means of a Student's t-test.

[2] = system: human hair follicles; test: Human hair follicles kept alive: elongation of the hair shaft in organ culture; assay type: cell-based; conditions: 1 μM in DMSO; for Elongation at D 7: cumulative from D0, mean
Experimental: Human hair follicles are dissected while keeping the bulb and the connective and epithelial sheaths intact to be cultured in an appropriate medium which makes it possible to provide for the growth of the follicle ex vivo while keeping its structure intact in the growth or anagen phase (Stenn, Ann. N.Y. Acad. Sci., 1991, Dec. 26, 642, xi-xiii). The growth of the hair follicles in vitro is then evaluated using the measurement of elongation of the […].
Human hair follicles of “terminal” type are isolated from a skin sample resulting from facial surgery (lifting). For this, the skin is cut into pieces of approximately 5×5 mm. The hypodermis is separated from the dermis using a scalpel blade. The hair follicles are isolated from the hypodermal part under a binocular magnifier using fine forceps. Only the hair follicles in the growth phase with a bulb and intact connective and epithelial sheaths are retained for study.
The hair follicles thus isolated are incubated at 37° C. in a humid atmosphere (5% CO2 and 95% air) and are cultured individually in suspension for 7 days in William's E medium supplemented with 2 mM of L-glutamine, 10 μg/ml of insulin, 10 ng/ml of hydrocortisone and 1% of antibiotics/antimitotics. The culture medium is replaced every 2 or 3 days.
The travoprost in its acid form is taken up in DMSO at a concentration of 10^−2M and stored at −20° C. until used.
The surviving hair follicles are treated with the DMSO carrier at a final concentration of 0.1% or with the travoprost acid at a concentration of 1 μM in DMSO (final DMSO concentration also at 0.1%). For each condition, 22 hair follicles are treated individually subsequent to culturing at D0. In the case of a repeated treatment, the travoprost acid at 1 μM in DMSO is replaced at the time of the change in medium, this being done for 7 days. In the case of a single treatment, the travoprost acid at 1 μM DMSO is added to the culture medium just once in the culturing.
The growth of the hair follicles is determined by the measurement of the elongation of the hair shaft from day D0 to day D7. The elongation of the hair shaft is analyzed using Tina image analysis software. The measurements are carried out on hair follicles isolated at days D0, D3, D5 and D7.
The mean post-D0 length (by definition: the mean of the lengths measured on the days following D0) is considered:
The mean post-D0 length is a function: • of the initial length at D0 • of the treatment group • of other factors related to technological or biological variability.
In this study example, 15 hair follicles (all groups mixed up) out of 66 cultured were discarded.
It is assumed that the mean post-D0 length is the sum of four components:
Some measurements, referred to as “aberrant” measurements, can have a highly disruptive effect on the estimation of the effects of the model. A robust ANOVA method is applied with regard to these measurements: “LTS” (Least Trimmed Squares). The principle of the LTS method is as follows: • 1. A definition is made at the start of a fixed proportion p0 of observations which it is desired to ignore in the estimation of the effects (p0=10%) among all the observations present independently of the treatment (observations of the entire study). The corresponding number of observations is denoted n0. • 2. n0 points are selected at random and excluded from the estimation process. • 3. The parameters (effects) of the model are estimated. • 4. Among the observations, excluded and non-excluded, the n0 observations which are the least well predicted by the model are identified. • 5. The n0 least well predicted observations found in stage 4, are, in their turn, excluded from the estimation process. • 6. Stage 3 (estimation) is reverted to until the observations excluded in stage 5 remain unchanged (“convergence”).
The LTS process is repeated a large number of times (200) starting from different random selections. […]

[3] = single treatment at the time of culturing

**Q.** What does the source list for `Nc1cc(N2CCCCC2)nc(N)[n+]1[O-]` [Minoxidil, 2,4-diamino-6-piperidinopyrimidine 3-oxide]?
**A.** Regrowth of the body hair versus ethanol ΔAUC (D 1-D 22) ([1]; 2.5% in ethanol, repeated daily administrations (21 days)): +34%; Regrowth of the body hair versus ethanol ΔAUC (D 1-D 22) ([1]; 2.5% in ethanol, repeated daily administrations (21 days), listed as minoxidil): 30%; regrowth of the body hair in comparison with the carrier ([1]; 2.5%, repeated daily administration for 21 days): accelerates the regrowth of the body hair

**Q.** With `CC(C)OC(=O)CCC/C=C\C[C@@H]1[C@@H](/C=C/[C@@H](O)COc2cccc(C(F)(F)F)c2)[C@H](O)C[C@@H]1O` [Travoprost, propane-2-yl (Z)-7-[(1R,2R,3R,5S)-3,5-dihydroxy-2-[(1E,3R)-3-hydroxy-4-[3-(trifluoromethyl)phenoxy]but-1-enyl]cyclopentyl]hept-5-enoate] as the compound, how does the “AUC (D 0-D 7) of hair shaft elongation” value ([2]; repeated treatment during 7 days) read?
**A.** 5.82

**Q.** And the “Elongation at D 7” value ([2]; repeated treatment during 7 days of culturing)?
**A.** 1.23 mm

**Q.** What about the “AUC (D 0-D 7) of hair shaft elongation” value [2, 3] of the same compound?
**A.** 5.83

**Q.** What about the “Elongation at D 7” value [2, 3] of the same compound?
**A.** 1.27 mm

**Q.** And the “Regrowth of the body hair versus ethanol ΔAUC (D 1-D 22)” value ([1]; 0.01% in ethanol, repeated daily administrations (5 days))?
**A.** +7%

**Q.** What about the “Regrowth of the body hair versus ethanol ΔAUC (D 1-D 22)” value ([1]; 0.01% in ethanol, single administration on day 1) of the same compound?
**A.** +31%

**Q.** And the “Regrowth of the body hair versus ethanol ΔAUC (D 1-D 22)” value ([1]; 0.01% in ethanol, single administration on day 1, listed as travoprost)?
**A.** 31%

**Q.** What about the “regrowth of the body hair in comparison with the carrier” value ([1]; 0.01%, repeated daily and consecutive administrations for 5 days) of the same compound?
**A.** do not accelerate the regrowth of the body hairs

**Q.** And the “regrowth of the body hair in comparison with the carrier” value ([1]; 0.01%, single administration)?
**A.** significantly accelerates the regrowth of the body hair

**Q.** What does the source list for `O=C(O)CCC/C=C\C[C@@H]1[C@@H](/C=C/[C@@H](O)COc2cccc(C(F)(F)F)c2)[C@H](O)C[C@@H]1O` [travoprost acid]?
**A.** elongation in the hair shaft compared with carrier DMSO ([2]; single treatment): greater than that obtained with the carrier DMSO; time at which the effect on elongation appears ([2]; single treatment): from the third day of treatment
